Results published in ChEMBL document CHEMBL3244120, “Monomethylthio analogues of 1-(2,4,5-trimethoxyphenyl)-2-aminopropane” (J Med Chem, 1977).

Columns and labels:
[1] = system: Oryctolagus cuniculus; test: Hyperthermic activity in New Zealand rabbit assessed as mean maximum rise in rectal temperature at 14.2 umol/kg administered in marginal ear vein as solution of amine hydrochloride in nonpyrogenic saline; format: functional, Rectum
[2] = system: Brain; test: Drug uptake in Sprague-Dawley rat brain assessed as R to S enantiomeric ratio at 30 mg/kg, ip after 30 mins by electron-capture gas chromatographic analysis; format: ADME, organism-based; parameters: dose 30 mg/kg, route intraperitoneal; settings: in vivo, 0.5 h
[3] = system: Oryctolagus cuniculus; test: Hyperthermic activity in New Zealand rabbit assessed as mean maximum rise in rectal temperature at 7.1 umol/kg administered in marginal ear vein as solution of amine hydrochloride in nonpyrogenic saline; format: functional, Rectum
[4] = system: Oryctolagus cuniculus; test: Hyperthermic activity in New Zealand rabbit assessed as mean maximum rise in rectal temperature at 0.25 to 21.2 umol/kg administered in marginal ear vein as solution of amine hydrochloride in nonpyrogenic saline relative to l-(2,5-dimethoxy-4-methylphenyl)-2-aminopropane; format: functional, Rectum
[5] = system: Brain; test: Drug uptake in Sprague-Dawley rat brain assessed as R to S enantiomeric ratio at 30 mg/kg, ip after 60 mins by electron-capture gas chromatographic analysis; format: ADME, organism-based; parameters: dose 30 mg/kg, route intraperitoneal; settings: in vivo, 1 h
[6] = system: Oryctolagus cuniculus; test: Hyperthermic activity in New Zealand rabbit assessed as increase in rectal temperature measured as time to reach peak effect at 7.1 umol/kg administered in marginal ear vein as solution of amine hydrochloride in nonpyrogenic saline; format: functional, Rectum
[7] = system: Brain; test: Drug uptake in Sprague-Dawley rat brain assessed as R to S enantiomeric ratio at 30 mg/kg, ip after 15 mins by electron-capture gas chromatographic analysis; format: ADME, organism-based; parameters: dose 30 mg/kg, route intraperitoneal; settings: in vivo, 0.25 h
[8] = system: Oryctolagus cuniculus; test: Hyperthermic activity in New Zealand rabbit assessed as dose required for 1 degC rise in rectal temperature administered in marginal ear vein as solution of amine hydrochloride in nonpyrogenic saline; format: functional, Rectum
[9] = system: Oryctolagus cuniculus; test: Hyperthermic activity in New Zealand rabbit at 0.25 to 21.2 umol/kg administered in marginal ear vein as solution of amine hydrochloride in nonpyrogenic saline by time-temperature curve integration method relative to l-(2,5-dimethoxy-4-methylphenyl)-2-aminopropane; format: functional
[10] = system: Oryctolagus cuniculus; test: Hyperthermic activity in New Zealand rabbit assessed as increase in rectal temperature measured as time to reach peak effect at 14.2 umol/kg administered in marginal ear vein as solution of amine hydrochloride in nonpyrogenic saline; format: functional, Rectum
[11] = system: Oryctolagus cuniculus; test: Hyperthermic activity in New Zealand rabbit assessed as mean maximum rise in rectal temperature at 5.3 umol/kg administered in marginal ear vein as solution of amine hydrochloride in nonpyrogenic saline; format: functional, Rectum
[12] = system: Oryctolagus cuniculus; test: Hyperthermic activity in New Zealand rabbit assessed as increase in rectal temperature measured as time to reach peak effect at 10.6 umol/kg administered in marginal ear vein as solution of amine hydrochloride in nonpyrogenic saline; format: functional, Rectum
[13] = system: Oryctolagus cuniculus; test: Hyperthermic activity in New Zealand rabbit assessed as mean maximum rise in rectal temperature at 10.6 umol/kg administered in marginal ear vein as solution of amine hydrochloride in nonpyrogenic saline; format: functional, Rectum
[14] = system: Oryctolagus cuniculus; test: Hyperthermic activity in New Zealand rabbit assessed as mean maximum rise in rectal temperature at 21.3 umol/kg administered in marginal ear vein as solution of amine hydrochloride in nonpyrogenic saline; format: functional, Rectum
[15] = system: Oryctolagus cuniculus; test: Hyperthermic activity in New Zealand rabbit assessed as increase in rectal temperature measured as time to reach peak effect at 5.3 umol/kg administered in marginal ear vein as solution of amine hydrochloride in nonpyrogenic saline; format: functional, Rectum
[16] = system: Oryctolagus cuniculus; test: Hyperthermic activity in New Zealand rabbit assessed as increase in rectal temperature measured as time to reach peak effect at 21.3 umol/kg administered in marginal ear vein as solution of amine hydrochloride in nonpyrogenic saline; format: functional, Rectum
[17] = system: Oryctolagus cuniculus; test: Hyperthermic activity in New Zealand rabbit assessed as increase in rectal temperature measured as time to reach peak effect at 0.67 umol/kg administered in marginal ear vein as solution of amine hydrochloride in nonpyrogenic saline; format: functional, Rectum
[18] = system: Oryctolagus cuniculus; test: Hyperthermic activity in New Zealand rabbit assessed as mean maximum rise in rectal temperature at 0.67 umol/kg administered in marginal ear vein as solution of amine hydrochloride in nonpyrogenic saline; format: functional, Rectum
[19] = system: Oryctolagus cuniculus; test: Hyperthermic activity in New Zealand rabbit assessed as increase in rectal temperature measured as time to reach peak effect at 2 umol/kg administered in marginal ear vein as solution of amine hydrochloride in nonpyrogenic saline; format: functional, Rectum
[20] = system: Oryctolagus cuniculus; test: Hyperthermic activity in New Zealand rabbit assessed as mean maximum rise in rectal temperature at 0.22 umol/kg administered in marginal ear vein as solution of amine hydrochloride in nonpyrogenic saline; format: functional, Rectum
[21] = system: Oryctolagus cuniculus; test: Hyperthermic activity in New Zealand rabbit assessed as mean maximum rise in rectal temperature at 2 umol/kg administered in marginal ear vein as solution of amine hydrochloride in nonpyrogenic saline; format: functional, Rectum
[22] = system: Oryctolagus cuniculus; test: Hyperthermic activity in New Zealand rabbit assessed as increase in rectal temperature measured as time to reach peak effect at 0.22 umol/kg administered in marginal ear vein as solution of amine hydrochloride in nonpyrogenic saline; format: functional, Rectum
[23] = system: Brain; test: Drug uptake in Sprague-Dawley rat brain assessed as R to S enantiomeric ratio at 30 mg/kg, ip after 120 mins by electron-capture gas chromatographic analysis; format: ADME, organism-based; parameters: dose 30 mg/kg, route intraperitoneal; settings: in vivo, 2 h
[24] = system: Oryctolagus cuniculus; test: Hyperthermic activity in New Zealand rabbit assessed as increase in rectal temperature measured as time to reach peak effect at 0.50 umol/kg administered in marginal ear vein as solution of amine hydrochloride in nonpyrogenic saline; format: functional, Rectum
[25] = system: Oryctolagus cuniculus; test: Hyperthermic activity in New Zealand rabbit assessed as mean maximum rise in rectal temperature at 0.50 umol/kg administered in marginal ear vein as solution of amine hydrochloride in nonpyrogenic saline; format: functional, Rectum
[26] = system: Brain; test: Drug uptake in Sprague-Dawley rat brain assessed as R to S enantiomeric ratio at 15 mg/kg, ip after 30 mins by electron-capture gas chromatographic analysis; format: ADME, organism-based; parameters: dose 15 mg/kg, route intraperitoneal; settings: in vivo, 0.5 h
[27] = system: Brain; test: Drug uptake in Sprague-Dawley rat brain assessed as R to S enantiomeric ratio at 15 mg/kg, ip after 60 mins by electron-capture gas chromatographic analysis; format: ADME, organism-based; parameters: dose 15 mg/kg, route intraperitoneal; settings: in vivo, 1 h
[28] = system: Oryctolagus cuniculus; test: Hyperthermic activity in New Zealand rabbit assessed as increase in rectal temperature measured as time to reach peak effect at 1 umol/kg administered in marginal ear vein as solution of amine hydrochloride in nonpyrogenic saline; format: functional, Rectum
[29] = system: Brain; test: Drug uptake in Sprague-Dawley rat brain assessed as R to S enantiomeric ratio at 15 mg/kg, ip after 15 mins by electron-capture gas chromatographic analysis; format: ADME, organism-based; parameters: dose 15 mg/kg, route intraperitoneal; settings: in vivo, 0.25 h
[30] = system: Brain; test: Drug uptake in Sprague-Dawley rat brain assessed as R to S enantiomeric ratio at 15 mg/kg, ip after 5 mins by electron-capture gas chromatographic analysis; format: ADME, organism-based; parameters: dose 15 mg/kg, route intraperitoneal; settings: in vivo
[31] = system: Oryctolagus cuniculus; test: Hyperthermic activity in New Zealand rabbit assessed as mean maximum rise in rectal temperature at 0.25 umol/kg administered in marginal ear vein as solution of amine hydrochloride in nonpyrogenic saline; format: functional, Rectum
[32] = system: Oryctolagus cuniculus; test: Hyperthermic activity in New Zealand rabbit assessed as mean maximum rise in rectal temperature at 1 umol/kg administered in marginal ear vein as solution of amine hydrochloride in nonpyrogenic saline; format: functional, Rectum
[33] = system: Oryctolagus cuniculus; test: Hyperthermic activity in New Zealand rabbit assessed as increase in rectal temperature measured as time to reach peak effect at 0.25 umol/kg administered in marginal ear vein as solution of amine hydrochloride in nonpyrogenic saline; format: functional, Rectum
[34] = system: Brain; test: Drug uptake in Sprague-Dawley rat brain assessed as R to S enantiomeric ratio at 15 mg/kg, ip after 120 mins by electron-capture gas chromatographic analysis; format: ADME, organism-based; parameters: dose 15 mg/kg, route intraperitoneal; settings: in vivo, 2 h

With `COc1cc(CC(C)N)c(SC)cc1OC.Cl` (racemic) the T [1] was 1.01 °C, the Ratio [2] was 1.09 and the T [3] was 0.82 °C. For the same molecule, the “fold change (FC)” value [4] was 0.017, the Ratio [5] was 1.43 and the Time [6] was 105 min. For the same molecule, the Ratio [7] was 1.14, the Activity [8] was 14 µmol/kg and the “fold change (FC)” value [9] was 0.022. It also gave a Time [10] of 75 min.

`COc1cc(OC)c(SC)cc1CC(C)N.Cl` (racemic) gave a Ratio [2] of 1.11, a T [11] of 0.6 °C and a Time [12] of 135 min. The “fold change (FC)” value [4] was 0.028, the Ratio [5] was 1.35 and the T [13] was 1.09 °C. For the same molecule, the Ratio [7] was 1.1, the Activity [8] was 9.77 µmol/kg and the “fold change (FC)” value [9] was 0.039. For the same molecule, the T [14] was 1.62 °C, the Time [15] was 120 min and the Time [16] was 180 min.

`COc1cc(SC)c(OC)cc1CC(C)N.Cl` (racemic) was tested, and the Ratio [2] was 1.14, the Time [17] was 165 min and the T [18] was 1.15 °C. The “fold change (FC)” value [4] was 0.54, the Time [19] was 195 min and the Ratio [5] was 1.23. It also gave a T [20] of 0.6 °C, a T [21] of 2.31 °C and a Ratio [7] of 1.54. It also gave a Time [22] of 120 min, a Ratio [23] of 1.62 and an Activity [8] of 0.5 µmol/kg. The “fold change (FC)” value [9] was 0.64.

Molecule `COc1cc(CC(C)N)c(OC)cc1C.Cl` (racemic) has a Time [24] of 195 min, a T [25] of 1.98 °C and a Ratio [26] of 1.46. For the same molecule, the Ratio [27] was 1.55, the “fold change (FC)” value [4] was 1 and the Activity [8] was 0.27 µmol/kg. For the same molecule, the Time [28] was 165 min, the Ratio [29] was 1.06 and the “fold change (FC)” value [9] was 1. The Ratio [30] was 0.95, the T [31] was 0.8 °C and the T [32] was 2.85 °C. For the same molecule, the Time [33] was 135 min and the Ratio [34] was 1.34.

With `CCN(CC)C(=O)[C@@H]1C=C2c3cccc4[nH]cc(c34)C[C@H]2N(C)C1` [LYSERGIDE] the “fold change (FC)” value [4] was 33.

For `COc1cc(CCN)cc(OC)c1OC` [MESCALINE], the “fold change (FC)” value [4] was 0.0006.
